Measurements: patent US20100298402A1, “STILBENE DERIVATIVES AS PSTAT3/IL-6 INHIBITORS” (ORCHID RESEARCH LABORATORIES LIMITED, priority 2007, published 2010)

Columns and labels:
Type in all cases: cell-based
[1] = system: pSTAT3 in HEPG2 (liver cancer) cells induced by IL-6; assay: Inhibition of pSTAT3 (IL-6 induced phosphorylation of STAT3, Phospho-STAT3 (Tyr705) Sandwich ELISA); conditions: Homo sapiens, 4 hours compound, then IL-6 (10 ng/mL) 30 minutes
Method: The experimental drugs were tested for their effect on phosphorylation of STAT3 in HEPG2 (liver cancer) cells induced by IL-6. Test compounds were dissolved in DMSO at 20 mM and diluted in a growth medium at 2× strength. Final DMSO concentration was less than 0.5%. 100 μL of cell suspension (10×10^4 cells/mL) was added to the wells of 96 well plates and allowed to adhere for 24 hours in a CO2 incubator at 37° C. Following overnight incubation, the culture medium was replaced with 100 μL of fresh growth medium and 100 μL of test compound (s), standard (Curcumin) and growth medium (untreated) wells. The plates were incubated in CO2 incubator at 37° C. for 4 hours. After compound treatment, IL-6 (10 ng/mL) was added to the wells and incubated for 30 minutes to induce pSTAT3.
At the end of the 30 minutes incubation, cells were rinsed with ice-cold PBS and lysed with 1× Cell lysis buffer containing 1 mM PMSF (provided in the kit) on ice for 5 minutes. The cells were scraped off and transferred to an appropriate tube, sonicated on ice and centrifuged for 10 minutes at 4° C. The supernatant (cell lysate) was collected and stored at −80° C. and the levels of pSTAT3 were measured in the cell lysate by Path Scan Phospho-STAT3 (Tyr705) Sandwich ELISA kit (Cell Signaling, Cat No. 7300) by following the kit instructions.

[2] = system: HCT 116 (colon), NCIH460 (lung) and U251 (glioma) cell lines; assay: Anti-cancer screen (MTT growth inhibition, 48 hours); conditions: Homo sapiens; HCT 116, NCIH460 and U251 cell lines; MTT after 48 hours of incubation;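 note: mean GI50 across the three cell lines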
Method: The experimental drugs were screened for anti-cancer activity in three cell lines using five concentrations for each compound. The cell lines—HCT 116 (colon), NCIH460 (lung) and U251 (glioma) were maintained in DMEM containing 10% fetal bovine serum. 96-well microtiter plates are inoculated with cells in 100 μL of cell suspension (5×10^4 cells/mL) for 24 hours at 37° C., 5% CO2, 95% air and 100% relative humidity. A separate plate with these cell lines is also inoculated to determine cell viability before the addition of the compounds (T0)
Following 24-hour incubation, test compounds were added to the 96 well plates. Each plate contains one of the above cell lines and the following samples in triplicate: five different dilutions (0.01, 0.1, 1, 10 and 100 μM) of four test compounds, appropriate dilutions of a cytotoxic standard and growth medium (untreated) wells. Test compounds were dissolved in DMSO to prepare 20 mM stock solutions on the day of drug addition and serial dilutions were carried out in complete growth medium at 2× strength, such that 100 μL added to the wells gave final concentrations (0.01, 0.1, 1, 10 and 100 μM) in the well. SAHA was used as the standard drug in these experiments.
For T0 measurement, 24 hours after seeding the cells, 20 μL of 3-(4,5-dimethyl-2-thiazolyl)-2,5-diphenyl-2H-tetrazolium (MTT) solution per well was added to the ‘T0’ plate and incubated for 3 hours at 37° C. in a CO2 incubator. The plate containing cells and test compounds was treated similarly after 48 hours of incubation. After 3 hours of MTT addition, well contents were aspirated carefully followed by addition of 150 μL DMSO per well. Plates were agitated to ensure dissolution of the formazan crystals in DMSO and absorbance was read at 570 nm (A570).
Percent growth (PG) is calculated relative to the control and zero measurement wells (T0) as follows:
PG values are plotted against drug concentration to derive the following: GI50 is the concentration required to decrease PG by 50% vs control; TGI is the concentration required to decrease PG by 100% vs control and LC50 is the concentration required to decrease PG by 50% vs T0. (Mosmann T. Rapid colorimetric assay for cellular growth and survival: application to proliferation and cytotoxicity assays. (J. Immunol. Methods. 1983, 65 (1-2), 55-63; Anne Monks et al); feasibility of high-flux anticancer drug screen using a diverse panel of cultured human tumor cell lines”. (JNCI, Vol. 83, No. 11, 1991). Results for growth inhibition of synthesized compounds are given in Table-1.

[3] = system: IL-6 in supernatant of NCIH 460 cells; assay: Measuring IL-6 in culture supernatants (ELISA); conditions: Homo sapiens, NCI-H460, 5 hours incubation

GI50 [2]	SMILES	inhibition at 10 µM [1]	inhibition at 10 µM [3]
0.9 µM	COC(=O)/C(=C/c1ccc(OCC(O)CNCc2ccccc2)cc1)c1cccs1 (stereo not shown) [Example 31, 3-{4-[3-(Benzylamino)-2-hydroxypropoxy]phenyl}-2-(thiophen-2-yl)acrylic acid methyl ester]	–	2.1%
0.6 µM	COC(=O)/C(=C/c1ccc(OC)cc1OC)c1ccc(OCC(O)CNCc2ccc(OC)cc2OC)cc1 (stereo not shown) [Example 32, 2-{4-[3-(2,4-Dimethoxybenzylamino)-2-hydroxypropoxy]phenyl}-3-(2,4-dimethoxyphenyl)acrylic acid methyl ester]	–	70.5%
2.6 µM	COC(=O)/C(=C/c1ccc(OC)cc1OC)c1ccc(OCC(O)CNCCOc2ccccc2OC)cc1 (stereo not shown) [Example 33, 2-{4-[3-(2-Methoxyphenoxyethylamino)-2-hydroxypropoxy]phenyl}-3-(2,4-dimethoxyphenyl)acrylic acid methyl ester]	–	61.2%
18.7 µM	COC(=O)/C(=C/c1ccc(OCC(O)CNCCOc2ccccc2OC)cc1)c1cccs1 (stereo not shown) [Example 34, 3-{4-[3-(2-Methoxyphenoxyethylamino)-2-hydroxypropoxy]phenyl}-2-(thiophen-2-yl)acrylic acid methyl ester]	–	41.9%
5.1 µM	COC(=O)/C(=C/c1ccc(OCC(O)CNCc2ccc(OC)cc2OC)cc1)c1ccc(F)cc1 (stereo not shown) [Example 35, 3-{4-[3-(2,4-Dimethoxybenzylamino)-2-hydroxypropoxy]phenyl}-2-(4-fluorophenyl)acrylic acid methyl ester]	32.7%	72.7%
12 µM	COC(=O)/C(=C/c1ccc(OCC(O)CNCc2ccccc2)cc1)c1ccc(F)cc1 (stereo not shown) [Example 36, 3-{4-[3-(Benzylamino)-2-hydroxypropoxy]phenyl}-2-(4-fluorophenyl)acrylic acid methyl ester]	–	27.9%
11.4 µM	COC(=O)/C(=C/c1ccc(OCC(O)CNCCOc2ccccc2OC)cc1)c1ccc(F)cc1 (stereo not shown) [Example 41, 3-{4-[3-(2-Methoxyphenoxyethylamino)-2-hydroxypropoxy]phenyl}-2-(4-fluorophenyl)acrylic acid methyl ester]	–	68%
12 µM	COC(=O)/C(=C/c1ccc(OCC(O)CNCCOc2ccccc2OC)cc1)c1ccccc1 (stereo not shown) [Example 42, 3-{4-[3-(2-Methoxyphenoxyethylamino)-2-hydroxypropoxy]phenyl}-2-phenylacrylic acid methyl ester]	–	13%
1.2 µM	COC(=O)/C(=C/c1ccccc1OCC(O)CNCc1ccc(OC)cc1OC)c1ccc(OC)cc1 (stereo not shown) [Example 45, 3-{2-[3-(2,4-Dimethoxybenzylamino)-2-hydroxypropoxy]phenyl}-2-(4-methoxyphenyl)acrylic acid methyl ester]	–	56%
1.6 µM	COC(=O)/C(=C/c1ccccc1OCC(O)CNCCOc1ccccc1OC)c1ccc(OC)cc1 (stereo not shown) [Example 46, 3-{2-[3-(2-Methoxyphenoxyethylamino)-2-hydroxypropoxy]phenyl}-2-(4-methoxyphenyl)acrylic acid methyl ester]	–	48%
1.3 µM	COC(=O)/C(=C/c1ccc(OCC(O)CNCc2ccc(OC)cc2OC)cc1)c1cccc(Cl)c1 (stereo not shown) [Example 47, 3-{4-[3-(2,4-Dimethoxybenzylamino)-2-hydroxypropoxy]phenyl}-2-(3-chlorophenyl)acrylic acid methyl ester]	–	59%
1.6 µM	COC(=O)/C(=C/c1ccc(OCC(O)CNCCOc2ccccc2OC)cc1)c1cccc(Cl)c1 (stereo not shown) [Example 48, 3-{4-[3-(2-Methoxyphenoxyethylamino)-2-hydroxypropoxy]phenyl}-2-(3-chlorophenyl)acrylic acid methyl ester]	–	9%

More lines, now with the values behind:

SMILES	GI50 [2]	inhibition at 10 µM [1]	inhibition at 10 µM [3]
COC(=O)/C(=C/c1ccc(F)c(C)c1)c1ccc(OCC(O)CNCc2ccc(OC)cc2OC)cc1 (stereo not shown) [Example 1, 2-{4-[3-(2,4-dimethoxybenzylamino)-2-hydroxypropoxy]phenyl}-3-(4-fluoro-3-methylphenyl)acrylic acid methyl ester]	–	22.2%	–
COC(=O)/C(=C/c1ccc(OCC(O)CNCCOc2ccccc2OC)cc1)c1ccc(OC)cc1 (stereo not shown) [Example 29, 3-{4-[3-(2-Methoxyphenoxyethylamino)-2-hydroxypropoxy]phenyl}-2-(4-(methoxy)phenyl)acrylic acid methyl ester]	1.9 µM	–	64.2%
COC(=O)/C(=C/c1ccc(OCC(O)CNCc2ccccc2)cc1)c1ccc(OC)cc1 (stereo not shown) [Example 30, 3-{4-[3-(Benzylamino)-2-hydroxypropoxy]phenyl}-2-(4-(methoxy)phenyl)acrylic acid methyl ester]	1.4 µM	–	27.8%
COC(=O)/C(=C/c1ccc(OCC(O)CNCc2ccccc2)cc1)c1ccc(C)cc1 (stereo not shown) [Example 39, 3-{4-[3-(Benzylamino)-2-hydroxypropoxy]phenyl}-2-(4-methylphenyl)acrylic acid methyl ester]	6.3 µM	–	41.8%
COC(=O)/C(=C/c1ccc(OCC(O)CNCc2ccccc2)cc1)c1ccccc1 (stereo not shown) [Example 44, 3-{4-[3-(Benzylamino)-2-hydroxypropoxy]phenyl}-2-phenylacrylic acid methyl ester]	2.1 µM	–	7.7%
COC(=O)/C(=C/c1ccc(OCC(O)CNCCOc2ccccc2OC)cc1)c1cccc(F)c1 (stereo not shown) [Example 51, 3-{4-[3-(2-Methoxyphenoxyethylamino)-2-hydroxypropoxy]phenyl}-2-(3-fluorophenyl)acrylic acid methyl ester]	–	49.9%	–
COC(=O)/C(=C/c1ccc(OCC(O)CNCc2ccc(OC)cc2OC)cc1)c1ccccc1F (stereo not shown) [Example 53, 3-{4-[3-(2,4-Dimethoxybenzylamino)-2-hydroxypropoxy]phenyl}-2-(2-fluorophenyl)acrylic acid methyl ester]	–	61.4%	–
COC(=O)/C(=C/c1ccc(C)s1)c1ccc(OCC(O)CNCc2ccc(OC)cc2OC)cc1 (stereo not shown) [Example 56, 2-{4-[3-(2,4-Dimethoxybenzylamino)-2-hydroxypropoxy]phenyl}-3-(5-methylthiophen-2-yl)acrylic acid methyl ester]	–	56.2%	–
COC(=O)/C(=C/c1ccc(C)s1)c1ccc(OCC(O)CNCCOc2ccccc2OC)cc1 (stereo not shown) [Example 57, 2-{4-[3-(2-Methoxyphenoxyethylamino)-2-hydroxypropoxy]phenyl}-3-(5-methylthiophen-2-yl)acrylic acid methyl ester]	–	66.5%	–
COc1ccc(CNCC(O)COc2ccc(/C(=C\c3ccc(F)c(F)c3)C(N)=O)cc2)c(OC)c1 (stereo not shown) [Example 64, 2-{4-[3-(2,4-Dimethoxybenzylamino)-2-hydroxypropoxy]phenyl}-3-(3,4-difluorophenyl)acrylamide]	–	32.2%	–
COc1ccccc1OCCNCC(O)COc1ccc(/C(=C\c2ccc(F)c(F)c2)C(N)=O)cc1 (stereo not shown) [Example 65, 2-{4-[3-(2-Methoxyphenoxyethylamino)-2-hydroxypropoxy]phenyl}-3-(3,4-difluorophenyl)acrylamide]	–	0%	–
